“And” between values parts separate entries of the source, which are not always exact repeats. Equal entries are not always repeated. Inconclusive results and toxic doses are left out.
Test system: BDF1 mice, B16 melanoma ip, median survival T/C
Experiment: NCI In Vivo Anticancer Drug Screen. Data for tumor model B16 Melanoma (intraperitoneal) in B6D2F1 (BDF1) mice
Conditions: endpoint: median survival time, higher = longer survival
In short: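 Survival or tumor size is measured after treatment of tumor-bearing mice and normalised to the vehicle-treated control group.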

[1] = dose: 100.0 mg/kg/injection, schedule: Q01DX009 (ip), vehicle: saline with Tween-80
[2] = dose: 200.0 mg/kg/injection, schedule: Q01DX009 (ip), vehicle: saline with Tween-80
[3] = dose: 400.0 mg/kg/injection, schedule: Q01DX009 (ip), vehicle: saline with Tween-80
[4] = dose: 50.0 mg/kg/injection, schedule: Q04DX003 (ip), vehicle: Klucel (hydroxypropylcellulose) (HPC)
[5] = dose: 100.0 mg/kg/injection, schedule: Q04DX003 (ip), vehicle: Klucel (hydroxypropylcellulose) (HPC)
[6] = dose: 25.0 mg/kg/injection, schedule: Q01DX009 (ip), vehicle: saline with Tween-80
[7] = dose: 50.0 mg/kg/injection, schedule: Q01DX009 (ip), vehicle: saline with Tween-80
[8] = dose: 100.0 mg/kg/injection, schedule: Q04DX003 (ip), vehicle: saline with Tween-80
[9] = dose: 25.0 mg/kg/injection, schedule: Q01DX009 (ip), vehicle: Klucel (hydroxypropylcellulose) (HPC)
[10] = dose: 50.0 mg/kg/injection, schedule: Q01DX009 (ip), vehicle: Klucel (hydroxypropylcellulose) (HPC)
[11] = dose: 100.0 mg/kg/injection, schedule: Q01DX009 (ip), vehicle: Klucel (hydroxypropylcellulose) (HPC)
[12] = dose: 200.0 mg/kg/injection, schedule: Q01DX009 (ip), vehicle: Klucel (hydroxypropylcellulose) (HPC)
[13] = dose: 200.0 mg/kg/injection, schedule: Q04DX003 (ip), vehicle: Klucel (hydroxypropylcellulose) (HPC)
[14] = dose: 12.5 mg/kg/injection, schedule: Q01DX009 (ip), vehicle: Klucel (hydroxypropylcellulose) (HPC)
[15] = dose: 400.0 mg/kg/injection, schedule: Q01DX009 (ip), vehicle: Klucel (hydroxypropylcellulose) (HPC)

In the case of CCC(C)C(C(=O)O)c1ccccc1 (centres undefined), the T/C [1] is reported as 107 % of control, the T/C [2] is reported as 99 % of control and the T/C [3] is reported as 93 % of control.

For O=CNc1cc2ccccc2c2ccc3ccccc3c12, the T/C [4] was 104 % of control and the T/C [5] was 100 % of control.

For Cc1cccc(NC(=O)c2ccccc2)c1C, the T/C [6] was 99 % of control, the T/C [7] was 99 % of control and the T/C [1] was 93 % of control.

Cc1c(C(=O)O)cc2n(c1=O)Cc1cc3ccccc3nc1-2 was tested, and the T/C (dose: 25.0 mg/kg/injection, schedule: Q04DX003 (ip), vehicle: Klucel (hydroxypropylcellulose) (HPC)) was 102 % of control, the T/C [4] was 94 % of control and the T/C [5] was 89 % of control. For the same compound, the T/C [8] was 100 % of control.

COc1ccc(C(C(N)=O)N2CCOCC2)cc1 (centres undefined) was tested, and the T/C [9] was 92 % of control, the T/C [10] was 89 % of control and the T/C [11] was 87 % of control. For the same compound, the T/C [5] was 92 % of control, the T/C [12] was 86 % of control and the T/C [13] was 95 % of control. The T/C (dose: 400.0 mg/kg/injection, schedule: Q04DX003 (ip), vehicle: Klucel (hydroxypropylcellulose) (HPC)) was 95 % of control.

COc1ccc(NC(=O)Nc2ccccc2F)cc1 was tested, and the T/C [11] was 97 % of control and the T/C [12] was 97 % of control.

With NN(CC1=COc2ccccc2O1)Cc1ccccc1 the T/C [14] was 94 % of control, the T/C [9] was 94 % of control and the T/C [10] was 91 % of control. The T/C [11] was 105 % of control and the T/C [13] was 91 % of control.

CNC(=O)CCN1CCN(CC/C=C2\c3ccccc3Sc3ccc(Cl)cc32)CC1 was tested, and the T/C (dose: 0.12 mg/kg/injection, schedule: Q01DX009 (ip), vehicle: saline) was 105 % of control, the T/C (dose: 0.51 mg/kg/injection, schedule: Q01DX009 (ip), vehicle: saline) was 100 % of control and the T/C (dose: 1.03 mg/kg/injection, schedule: Q01DX009 (ip), vehicle: saline) was 87 % of control. The T/C (dose: 2.06 mg/kg/injection, schedule: Q01DX009 (ip), vehicle: saline) was 95 % of control and the T/C (dose: 4.12 mg/kg/injection, schedule: Q01DX009 (ip), vehicle: saline) was 97 % of control.

CC(C)[NH-].CC(C)[NH-].[Cl][Pt+2][Cl] was tested, and the T/C (dose: 12.5 mg/kg/injection, schedule: Q01DX009 (ip), vehicle: dextrose) was 155 % of control.

In the case of Nc1ncnc2c1ncn2C1OC(CO)CC1O (centres undefined), the T/C (dose: 18.75 mg/kg/injection, schedule: Q01DX009 (ip), vehicle: Klucel (hydroxypropylcellulose) (HPC)) is reported as 113 % of control, the T/C (dose: 37.5 mg/kg/injection, schedule: Q01DX009 (ip), vehicle: Klucel (hydroxypropylcellulose) (HPC)) is reported as 112 % of control and 119 % of control and the T/C (dose: 75.0 mg/kg/injection, schedule: Q01DX009 (ip), vehicle: Klucel (hydroxypropylcellulose) (HPC)) is reported as 104 % of control and 115 % of control.

For CCCCCCC(=O)/C=C/c1cccc(OCOCC)c1, the T/C (dose: 12.5 mg/kg/injection, schedule: Q01DX009 (ip), vehicle: saline with Tween-80) was 99 % of control, the T/C [6] was 94 % of control and the T/C [7] was 102 % of control. The T/C [1] was 98 % of control.

Cc1cc(=O)c2c(o1)-c1c(cc(O)c(O)c1C(=O)O)OC2 was tested, and the T/C [14] was 101 % of control, the T/C [9] was 105 % of control and the T/C [10] was 105 % of control. The T/C [11] was 102 % of control and the T/C [12] was 106 % of control.

In the case of COC1=C(OC)C(=O)C(C/C=C(\C)CC/C=C(\C)CC/C=C(\C)CC/C=C(\C)CC/C=C(\C)CC/C=C(\C)CC/C=C(\C)CC/C=C(\C)CCC=C(C)C)=C(C)C1=O, the T/C (dose: 10.0 mg/kg/injection, schedule: Q01DX025 (ip), vehicle: saline with Tween-80) is reported as 81 % of control, the T/C (dose: 20.0 mg/kg/injection, schedule: Q01DX025 (ip), vehicle: saline with Tween-80) is reported as 102 % of control and the T/C (dose: 40.0 mg/kg/injection, schedule: Q01DX025 (ip), vehicle: saline with Tween-80) is reported as 100 % of control.

For NC(Cc1cnc[nH]1)C(=O)O (centres undefined) (tested in a mixture with another compound), the T/C (dose: 100.0 mg/kg/injection, schedule: Q01DX009 (ip), vehicle: saline) was 106 % of control, the T/C (dose: 100.0 mg/kg/injection, schedule: Q04DX003 (ip), vehicle: saline) was 104 % of control and the T/C (dose: 200.0 mg/kg/injection, schedule: Q01DX009 (ip), vehicle: saline) was 100 % of control. The T/C (dose: 200.0 mg/kg/injection, schedule: Q04DX003 (ip), vehicle: saline) was 90 % of control, the T/C (dose: 400.0 mg/kg/injection, schedule: Q01DX009 (ip), vehicle: saline) was 100 % of control and the T/C (dose: 400.0 mg/kg/injection, schedule: Q04DX003 (ip), vehicle: saline) was 102 % of control.

For CC(=O)Oc1ccc(N2C(=O)C3C(C2=O)C2c4ccccc4C3C3CCCCN32)cc1 (centres undefined) (tested in a mixture with another compound), the T/C (dose: 12.5 mg/kg/injection, schedule: Q01DX009 (ip), vehicle: water) was 103 % of control, the T/C (dose: 25.0 mg/kg/injection, schedule: Q01DX009 (ip), vehicle: water) was 97 % of control and the T/C (dose: 50.0 mg/kg/injection, schedule: Q01DX009 (ip), vehicle: water) was 104 % of control. For the same compound, the T/C (dose: 100.0 mg/kg/injection, schedule: Q01DX009 (ip), vehicle: water) was 97 % of control.

With Cc1[nH]ccc2c(C)c3nc4ccccc4c3cc12 the T/C [9] was 161 % of control.

Cc1ccccc1C(=O)NCC(=O)O was tested, and the T/C [1] was 107 % of control, the T/C [2] was 99 % of control and the T/C [3] was 95 % of control.

For Nc1ccc(OS(=O)(=O)c2ccccc2)cc1, the T/C [7] was 97 % of control, the T/C [1] was 100 % of control and the T/C [2] was 101 % of control. The T/C [3] was 90 % of control.

In the case of Clc1ccc2nc(CBr)cnc2c1, the T/C (dose: 0.75 mg/kg/injection, schedule: Q01DX009 (ip), vehicle: saline with Tween-80) is reported as 97 % of control, the T/C (dose: 1.5 mg/kg/injection, schedule: Q01DX009 (ip), vehicle: saline with Tween-80) is reported as 86 % of control and the T/C (dose: 3.0 mg/kg/injection, schedule: Q01DX009 (ip), vehicle: saline with Tween-80) is reported as 97 % of control. For the same compound, the T/C (dose: 6.0 mg/kg/injection, schedule: Q01DX009 (ip), vehicle: saline with Tween-80) was 88 % of control and the T/C (dose: 6.25 mg/kg/injection, schedule: Q01DX009 (ip), vehicle: saline with Tween-80) was 87 % of control.

With C=C(Cl)c1c(C)cc(C)cc1C the T/C [10] was 87 % of control.

With O=C1C(Br)C2CCC1C2C(=O)O (centres undefined) the T/C [1] was 111 % of control, the T/C [2] was 94 % of control and the T/C [3] was 89 % of control.

O=C1CN(CCN2CC(=O)NC(=O)C2)CC(=O)N1 was tested, and the T/C (dose: 15.0 mg/kg/injection, schedule: Q01DX009 (oral), vehicle: saline) was 115 % of control and the T/C (dose: 30.0 mg/kg/injection, schedule: Q01DX009 (oral), vehicle: saline) was 122 % of control.

For Cc1cc2nc(-c3ccccc3O)[nH]c2cc1C, the T/C [11] was 93 % of control and 94 % of control and the T/C [12] was 94 % of control and 106 % of control.

O=C1N[C@H]2[C@H](CS[C@H]2CCCCC(=O)N(CCP(c2ccccc2)c2ccccc2)CCP(c2ccccc2)c2ccccc2)N1 was tested, and the T/C [9] was 112 % of control, the T/C [10] was 120 % of control and the T/C [12] was 123 % of control. The T/C [15] was 108 % of control.

In the case of N#CC(C#N)=C/C=C/c1cccc([N+](=O)[O-])c1, the T/C (dose: 3.12 mg/kg/injection, schedule: Q01DX009 (ip), vehicle: Klucel (hydroxypropylcellulose) (HPC)) is reported as 110 % of control, the T/C (dose: 6.25 mg/kg/injection, schedule: Q01DX009 (ip), vehicle: Klucel (hydroxypropylcellulose) (HPC)) is reported as 104 % of control and the T/C [14] is reported as 115 % of control.

For Cc1ccc([N+](=O)[O-])cc1NC(=O)Oc1ccc(Cl)cc1, the T/C (dose: 25.0 mg/kg/injection, schedule: Q04DX009 (ip), vehicle: Klucel (hydroxypropylcellulose) (HPC)) was 94 % of control, the T/C (dose: 50.0 mg/kg/injection, schedule: Q04DX009 (ip), vehicle: Klucel (hydroxypropylcellulose) (HPC)) was 104 % of control and the T/C (dose: 100.0 mg/kg/injection, schedule: Q04DX003 (ip), vehicle: carboxymethylcellulose (CMC)) was 93 % of control. The T/C (dose: 100.0 mg/kg/injection, schedule: Q04DX009 (ip), vehicle: Klucel (hydroxypropylcellulose) (HPC)) was 96 % of control and the T/C (dose: 400.0 mg/kg/injection, schedule: Q04DX003 (ip), vehicle: carboxymethylcellulose (CMC)) was 86 % of control.

With CCCCC(C=O)(C=C=C(C)C)CC (centres undefined) the T/C [8] was 88 % of control and the T/C (dose: 200.0 mg/kg/injection, schedule: Q04DX003 (ip), vehicle: saline with Tween-80) was 95 % of control.

With O=[N+]([O-])c1ccc(N=Nc2c(Cl)cc(O)cc2Cl)cc1 the T/C [6] was 101 % of control, the T/C [7] was 90 % of control and the T/C [1] was 88 % of control. For the same compound, the T/C [2] was 90 % of control.

C=CCC(C(C)=O)C(=O)OCC (centres undefined) was tested, and the T/C [11] was 106 % of control, the T/C [12] was 110 % of control and the T/C [15] was 110 % of control.

Reference: PubChem BioAssay AID192 (DTP/NCI, 2004)
